Data set [1] concerns Mus musculus. The experiment in a line: Anti-inflammatory activity in imiquimod-induced female BALB/c mouse psoriasis model assessed as alleviation of psoriasis pathology at 15 mg/kg, ip administered daily topically for 6 days. It is filed as functional, organism-based. As to conditions: time 6.0 day.
The species entered for data set [2] is Mus musculus. As to the kind of experiment: Anti-inflammatory activity in imiquimod-induced female BALB/c mouse psoriasis model assessed as reduction in IL-23 expression in skin by ELISA method. It is filed as functional, organism-based. (In general: An ELISA detects its analyte on a solid surface through an enzyme-linked reagent.)
For data set [3], the system named is Mus musculus. As to the kind of experiment: Anti-inflammatory activity in imiquimod-induced female BALB/c mouse psoriasis model assessed as reduction in acanthosis at 5 mg/kg, ip administered daily topically for 6 days by H and E staining based analysis. Conditions: time 6.0 day. It is filed as functional, organism-based.
For data set [4], the target named is Tyrosine-protein kinase JAK2 (Homo sapiens, UniProt O60674). The experiment in a line: Binding affinity to JAK2 (unknown origin) by ADP-glo kinase assay. For orientation: In ADP-Glo the light output rises with the ADP produced.
Chain of Tyrosine-protein kinase JAK2 (O60674 whole entry): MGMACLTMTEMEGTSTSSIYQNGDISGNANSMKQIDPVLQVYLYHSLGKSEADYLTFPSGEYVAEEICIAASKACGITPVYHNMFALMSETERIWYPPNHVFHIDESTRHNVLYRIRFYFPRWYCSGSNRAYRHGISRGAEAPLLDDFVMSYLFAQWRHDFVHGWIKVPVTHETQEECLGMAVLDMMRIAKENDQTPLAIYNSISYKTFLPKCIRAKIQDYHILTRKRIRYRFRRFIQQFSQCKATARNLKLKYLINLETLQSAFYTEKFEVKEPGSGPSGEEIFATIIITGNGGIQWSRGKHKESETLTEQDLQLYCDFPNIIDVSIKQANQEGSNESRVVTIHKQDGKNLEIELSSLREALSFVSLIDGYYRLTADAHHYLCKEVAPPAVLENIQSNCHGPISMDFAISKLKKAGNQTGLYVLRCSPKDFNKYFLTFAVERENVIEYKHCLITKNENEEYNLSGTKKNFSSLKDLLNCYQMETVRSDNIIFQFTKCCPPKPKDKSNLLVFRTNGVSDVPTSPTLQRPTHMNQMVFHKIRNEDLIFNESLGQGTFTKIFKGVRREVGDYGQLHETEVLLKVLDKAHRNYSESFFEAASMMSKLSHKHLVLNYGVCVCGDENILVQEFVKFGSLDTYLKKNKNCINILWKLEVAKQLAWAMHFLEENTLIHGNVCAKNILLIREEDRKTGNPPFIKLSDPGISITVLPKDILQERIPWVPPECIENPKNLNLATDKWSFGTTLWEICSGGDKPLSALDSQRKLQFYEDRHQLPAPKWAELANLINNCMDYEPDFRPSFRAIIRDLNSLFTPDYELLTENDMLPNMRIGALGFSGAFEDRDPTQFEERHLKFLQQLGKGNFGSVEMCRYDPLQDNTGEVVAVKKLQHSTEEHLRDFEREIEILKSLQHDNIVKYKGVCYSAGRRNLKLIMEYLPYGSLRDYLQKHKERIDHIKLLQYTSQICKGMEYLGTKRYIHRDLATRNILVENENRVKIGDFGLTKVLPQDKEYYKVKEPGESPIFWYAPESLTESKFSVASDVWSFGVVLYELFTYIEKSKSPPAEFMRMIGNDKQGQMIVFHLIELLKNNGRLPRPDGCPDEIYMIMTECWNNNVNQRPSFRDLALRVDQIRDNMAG
For data set [5], the system named is Mus musculus. The experiment in a line: Anti-inflammatory activity in imiquimod-induced female BALB/c mouse psoriasis model assessed as effect on body weight at 5 mg/kg, ip administered daily topically for 6 days. As to conditions: time 6.0 day. Format: functional, organism-based.
The target in data set [6] is T1, Tyrosine-protein kinase JAK3 (Homo sapiens, UniProt P52333).
T1 sequence (P52333 whole entry): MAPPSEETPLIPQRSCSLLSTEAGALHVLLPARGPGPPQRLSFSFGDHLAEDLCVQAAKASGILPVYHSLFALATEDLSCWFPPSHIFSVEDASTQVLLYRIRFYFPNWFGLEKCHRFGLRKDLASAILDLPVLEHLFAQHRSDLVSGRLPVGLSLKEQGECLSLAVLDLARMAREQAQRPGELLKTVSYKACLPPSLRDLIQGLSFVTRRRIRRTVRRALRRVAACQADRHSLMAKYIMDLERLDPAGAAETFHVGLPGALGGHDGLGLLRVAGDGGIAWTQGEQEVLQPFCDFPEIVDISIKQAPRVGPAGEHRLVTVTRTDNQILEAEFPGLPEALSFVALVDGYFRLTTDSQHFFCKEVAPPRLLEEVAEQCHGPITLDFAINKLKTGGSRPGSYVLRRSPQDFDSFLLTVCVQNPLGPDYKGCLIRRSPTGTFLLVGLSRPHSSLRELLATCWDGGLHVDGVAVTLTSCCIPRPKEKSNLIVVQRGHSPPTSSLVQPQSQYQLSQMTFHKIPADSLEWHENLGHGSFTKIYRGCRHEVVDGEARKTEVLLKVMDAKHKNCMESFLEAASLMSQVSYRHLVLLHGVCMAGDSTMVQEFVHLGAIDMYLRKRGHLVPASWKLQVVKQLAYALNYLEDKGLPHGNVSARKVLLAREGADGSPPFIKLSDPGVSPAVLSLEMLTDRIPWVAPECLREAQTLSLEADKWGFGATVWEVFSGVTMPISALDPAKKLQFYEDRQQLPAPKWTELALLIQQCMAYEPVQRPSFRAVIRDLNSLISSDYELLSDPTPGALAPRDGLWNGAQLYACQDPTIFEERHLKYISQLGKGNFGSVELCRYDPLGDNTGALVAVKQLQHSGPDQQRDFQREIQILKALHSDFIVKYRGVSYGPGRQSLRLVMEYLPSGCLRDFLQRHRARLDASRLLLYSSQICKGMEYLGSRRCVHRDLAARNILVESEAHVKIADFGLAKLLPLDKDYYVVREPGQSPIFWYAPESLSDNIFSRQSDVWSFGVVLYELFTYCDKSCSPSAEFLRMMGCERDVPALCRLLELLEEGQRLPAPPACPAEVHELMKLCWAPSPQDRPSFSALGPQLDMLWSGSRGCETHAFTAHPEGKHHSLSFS
As to the kind of experiment: Binding affinity to JAK3 (unknown origin) by ADP-glo kinase assay.

Data set [7] in a line: Apparent permeability of the compound in human Caco-2 cells at 10 uM measured up to 120 min by LC-MS/MS analysis. Format: ADME, cell-based. In general terms: Caco-2 monolayers are a common model of the intestinal barrier.
For data set [8], the target named is T2, Protein cereblon/Non-receptor tyrosine-protein kinase TYK2 (Homo sapiens, UniProt P29597+Q96SW2). The experiment in a line: PROTAC activity at CRBN/TYK2 in human Jurkat cells assessed as induction of degradation of TYK2 at 10 nM measured after 10 hrs by Western blot analysis relative to control. Format: cell-based.
T2 sequence (P29597 whole entry, looked up): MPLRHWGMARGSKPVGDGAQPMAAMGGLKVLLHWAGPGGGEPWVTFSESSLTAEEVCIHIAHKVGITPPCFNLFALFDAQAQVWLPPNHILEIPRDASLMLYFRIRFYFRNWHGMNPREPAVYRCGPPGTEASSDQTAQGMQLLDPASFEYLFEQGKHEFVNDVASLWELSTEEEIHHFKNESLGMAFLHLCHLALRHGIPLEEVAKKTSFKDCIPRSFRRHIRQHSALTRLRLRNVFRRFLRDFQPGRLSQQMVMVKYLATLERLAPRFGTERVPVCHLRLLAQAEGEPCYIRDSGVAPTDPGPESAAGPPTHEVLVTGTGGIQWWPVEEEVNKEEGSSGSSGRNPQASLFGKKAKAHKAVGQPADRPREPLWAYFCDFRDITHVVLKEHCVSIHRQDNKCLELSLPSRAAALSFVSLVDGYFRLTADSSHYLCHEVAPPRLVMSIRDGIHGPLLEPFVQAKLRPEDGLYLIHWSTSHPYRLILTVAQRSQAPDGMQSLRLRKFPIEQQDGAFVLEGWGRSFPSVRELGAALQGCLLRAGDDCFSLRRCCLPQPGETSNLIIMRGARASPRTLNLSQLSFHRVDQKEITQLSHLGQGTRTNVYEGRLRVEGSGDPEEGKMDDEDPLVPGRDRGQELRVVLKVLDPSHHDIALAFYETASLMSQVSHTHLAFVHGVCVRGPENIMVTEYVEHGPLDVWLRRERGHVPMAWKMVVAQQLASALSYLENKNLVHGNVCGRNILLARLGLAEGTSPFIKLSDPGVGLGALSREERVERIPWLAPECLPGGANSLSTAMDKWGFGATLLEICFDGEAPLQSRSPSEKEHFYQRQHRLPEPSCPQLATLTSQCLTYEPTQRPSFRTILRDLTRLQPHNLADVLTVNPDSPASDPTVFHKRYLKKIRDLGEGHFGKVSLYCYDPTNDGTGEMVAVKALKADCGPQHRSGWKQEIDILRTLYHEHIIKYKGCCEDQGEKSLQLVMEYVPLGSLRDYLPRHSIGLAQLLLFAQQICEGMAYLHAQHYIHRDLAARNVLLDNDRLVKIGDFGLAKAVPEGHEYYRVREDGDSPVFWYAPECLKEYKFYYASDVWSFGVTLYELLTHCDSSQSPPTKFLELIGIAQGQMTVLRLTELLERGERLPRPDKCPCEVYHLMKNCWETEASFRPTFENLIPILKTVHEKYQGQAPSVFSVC
T2 sequence (Q96SW2 whole entry, looked up): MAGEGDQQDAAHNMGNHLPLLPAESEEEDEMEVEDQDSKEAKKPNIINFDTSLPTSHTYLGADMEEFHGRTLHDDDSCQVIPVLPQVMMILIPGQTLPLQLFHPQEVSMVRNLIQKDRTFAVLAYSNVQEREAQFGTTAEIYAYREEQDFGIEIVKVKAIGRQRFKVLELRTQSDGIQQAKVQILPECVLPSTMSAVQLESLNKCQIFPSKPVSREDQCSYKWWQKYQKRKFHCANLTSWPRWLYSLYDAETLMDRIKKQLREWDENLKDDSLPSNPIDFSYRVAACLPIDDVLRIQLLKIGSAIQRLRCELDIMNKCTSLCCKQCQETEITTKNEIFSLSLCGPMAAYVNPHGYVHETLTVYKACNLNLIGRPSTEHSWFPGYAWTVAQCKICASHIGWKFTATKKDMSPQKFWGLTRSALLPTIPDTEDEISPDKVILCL
Data set [9] can be described thus: Metabolic stability in mouse liver microsomes assessed as half life measured up to 120 mins by LC-MS/MS analysis. Format: ADME, Microsome.
Data set [10] is filed under the species Mus musculus. As to the kind of experiment: Anti-inflammatory activity in imiquimod-induced female BALB/c mouse psoriasis model assessed as reduction in INF-alpha expression in serum by ELISA method. It is filed as functional, organism-based.
The test system of data set [11] is Jurkat. The experiment in a line: Downregulation of JAK1 protein level in human Jurkat cells at 1 to 100 nM measured after 10 hrs by Western blot analysis. Format: functional, cell-based. Conditions: dose 1-100 nM.
A short description of data set [12]: Metabolic stability in mouse liver microsomes assessed as intrinsic clearance measured up to 120 mins by LC-MS/MS analysis. As to conditions: read-out: CLH. It is filed as ADME, Microsome.
Data set [13] relates to Mus musculus. As to the kind of experiment: Anti-inflammatory activity in imiquimod-induced female BALB/c mouse psoriasis model assessed as reduction in inflammatory infiltration at 5 mg/kg, ip administered daily topically for 6 days by H and E staining based analysis. Format: functional, organism-based. Conditions: time 6.0 day.
Data set [14] addresses T2, Protein cereblon/Non-receptor tyrosine-protein kinase TYK2. As to the kind of experiment: PROTAC activity at CRBN/TYK2 in human Jurkat cells assessed as induction of degradation of TYK2 at 10 nM preincubated for 24 hrs followed by compound washout and followed by incubation in compound free medium by Western blot analysis. Format: cell-based.
Data set [15] deals with Jurkat. As to the kind of experiment: Downregulation of Ikaros level in human Jurkat cells at 30 nM measured after 4 hrs by DIA-Based Proteomic analysis. It is filed as functional, cell-based.
The test system of data set [16] is Jurkat. The experiment in a line: Effect on JAK3 protein level in human Jurkat cells at 30 nM measured after 4 hrs by DIA-Based Proteomic analysis. Format: functional, cell-based.
Data set [17] is described as follows: Inhibition of TYK2 dependent STAT3 phosphorylation in IL-12 stimulated human PBMC cells preincubated for 60 mins followed by IL-12 stimulation and measured after 60 mins by FACS assay. It is filed as cell-based.
Data set [18] has as its target Tyrosine-protein kinase JAK1 (Homo sapiens, UniProt P23458). The experiment in a line: Displacement of fluorophore-labeled probe from JAK1 JH2 domain (unknown origin) by HTRF assay.
The species named for data set [19] is Mus musculus. As to the kind of experiment: Anti-inflammatory activity in imiquimod-induced female BALB/c mouse psoriasis model assessed as reduction in INF-alpha expression in skin by ELISA method. It is filed as functional, organism-based.
Data set [20] is described as follows: Tmax in male ICR mouse at 5 mg/kg, ip measured up to 24 hrs by LC-MS/MS analysis. Format: ADME, organism-based. As to conditions: in vivo.
The species named for data set [21] is Mus musculus. The experiment in a line: Anti-inflammatory activity in imiquimod-induced female BALB/c mouse psoriasis model assessed as reduction in IL-17 expression in skin by ELISA method. It is filed as functional, organism-based.
Data set [22] addresses T2, Protein cereblon/Non-receptor tyrosine-protein kinase TYK2. As to the kind of experiment: PROTAC activity at CRBN/TYK2 in human Jurkat cells assessed as induction of degradation of TYK2 at 10 nM measured after 10 to 36 hrs by Western blot analysis relative to control. It is filed as cell-based. Conditions: time 10-36 hrs.
The nature of data set [23]: Inhibition of IFN-alpha activated TYK2 dependent STAT3 phosphorylation in human Jurkat cells incubated for 10 hrs by Western blot analysis. It is filed as cell-based.
Data set [24] relates to Jurkat. As to the kind of experiment: Downregulation of JAK2 protein level in human Jurkat cells at 1 to 100 nM measured after 10 hrs by Western blot analysis. As to conditions: dose 1-100 nM. It is filed as functional, cell-based.

Structures are written as SMILES. The source made the active and inactive calls. No cut-off for these calls is given here.

Chain of Tyrosine-protein kinase JAK1 (P23458 whole entry, the tested form may be a part): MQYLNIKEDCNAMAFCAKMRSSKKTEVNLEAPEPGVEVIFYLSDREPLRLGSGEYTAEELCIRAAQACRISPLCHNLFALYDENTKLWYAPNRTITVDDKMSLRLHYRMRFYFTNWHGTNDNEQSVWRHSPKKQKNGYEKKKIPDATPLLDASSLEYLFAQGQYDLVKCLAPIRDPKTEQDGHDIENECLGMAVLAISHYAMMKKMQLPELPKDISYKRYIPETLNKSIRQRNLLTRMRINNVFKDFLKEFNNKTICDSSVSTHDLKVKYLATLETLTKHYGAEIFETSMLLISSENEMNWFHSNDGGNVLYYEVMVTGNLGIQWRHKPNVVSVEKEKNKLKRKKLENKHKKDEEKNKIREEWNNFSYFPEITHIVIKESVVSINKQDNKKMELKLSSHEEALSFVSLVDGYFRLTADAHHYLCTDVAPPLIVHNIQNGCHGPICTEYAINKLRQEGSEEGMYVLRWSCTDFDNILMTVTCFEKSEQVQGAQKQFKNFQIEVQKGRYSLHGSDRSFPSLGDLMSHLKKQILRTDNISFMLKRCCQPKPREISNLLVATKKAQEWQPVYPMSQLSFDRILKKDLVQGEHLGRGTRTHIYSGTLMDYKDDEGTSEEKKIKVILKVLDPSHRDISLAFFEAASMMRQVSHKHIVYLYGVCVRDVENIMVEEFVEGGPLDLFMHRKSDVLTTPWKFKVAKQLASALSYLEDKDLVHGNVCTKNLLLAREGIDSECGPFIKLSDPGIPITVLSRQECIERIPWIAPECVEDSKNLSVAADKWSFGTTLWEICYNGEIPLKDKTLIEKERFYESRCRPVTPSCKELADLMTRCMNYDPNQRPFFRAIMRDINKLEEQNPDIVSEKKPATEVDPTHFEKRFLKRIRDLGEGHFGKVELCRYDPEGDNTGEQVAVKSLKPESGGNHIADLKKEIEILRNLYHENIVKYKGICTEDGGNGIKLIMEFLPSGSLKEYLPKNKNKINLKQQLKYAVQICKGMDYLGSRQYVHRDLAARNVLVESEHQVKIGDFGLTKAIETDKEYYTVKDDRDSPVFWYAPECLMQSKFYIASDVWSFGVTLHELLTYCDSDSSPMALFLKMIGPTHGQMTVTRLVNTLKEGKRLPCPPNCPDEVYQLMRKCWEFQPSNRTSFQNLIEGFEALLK

Turning to `CNC(=O)c1cnc(Nc2ccc(C(=O)NC3CCC(Nc4ccc5c(c4)C(=O)N(C4CCC(=O)NC4=O)C5=O)CC3)cn2)cc1Nc1cccc(-c2ncc(F)cn2)c1OC` (centres undefined), the result with Mus musculus [1], in the data set filed under Mus musculus [2], with Mus musculus [3], in the data set on Mus musculus [5], in the data set listed under Mus musculus [10] and with Jurkat [11] was Active. The outcome in the data set on Mus musculus [13], in the data set listed under Mus musculus [19], in the data set filed under Mus musculus [21] and in the data set with Jurkat [24] was Active. For the same compound, the IC50 (as a rule, the concentration needed to halve the response being measured) in [4] is more than 10000 nM; in [6], more than 10000 nM; in data set [17], 8.6 nM; in data set [18] it was more than 100 nM; in data set [23] it was 6.7 nM. For the same compound, the Papp (commonly the rate of passage across a membrane or cell layer, normalised by area and donor concentration) at 2 h, 10 µM in data set [7] is less than 0.1 ×10⁻⁶ cm/s. Besides, the results for the Activity in [8] and in data set [22] were 96% and 90%, respectively. Besides, the half-life (in general, how long it takes for the measured level to halve) in data set [9] is 1.68 h. The CLint scaled in [12] is 54 mL/min/kg. In addition, the outcome (in data set [14]; in the data set with Jurkat [15]; in the data set on Jurkat [16]) was inactive. The Tmax – broadly, the time from dosing to the highest level – in data set [20] came to 0.4 h.

(Values after ChEMBL document CHEMBL6109122 (J Med Chem, 2025).)
